Source: patent US5684026A, “Aminocyclopentane derivative” (priority 1994, dated 1997)
pIC50: −log10 of the molar value.

How the values were obtained:
Assay type in all cases: biochemical
[1] = biological target: T1, α-Glucosidase (Baker's yeast, EC 3.2.1.20) (Saccharomyces cerevisiae, UniProt P53341); test: α-Glucosidase enzyme inhibition assay (p-nitrophenyl α-D-glucopyranoside); settings: for IC50: pH 6.8, 37° C., 30 minutes, read-out: IC50 (M) α-Glucosidase (Baker's yeast)
T1 construct: purchased Sigma; host or cells: Baker's yeast
Procedure: (§1) By using a 96-well microplate, the absorbance (at 405 nm) of liberated p- or o-nitrophenol was measured with a microplate reader (MPR-4Ai, manufactured by Tosoh Corporation).
(§2) Incubation was carried out at 37° C. by using a natural incubator (Compact NIB-10, manufactured by Iwaki Glass Co., Ltd.).
(§3) The enzymes employed herein [α-glucosidase (Baker's yeast), β-glucosidase (Almonds), α-galactosidase (E. coli), β-galactosidase (E. coli) and β-galactosidase (Bovine Liver)] were all purchased from Sigma.
(§4) The substrates (p- or o-nitrophenylglycoside) of these enzymes were all purchased from Sigma.
1) α-Glucosidase (Baker's yeast, EC 3.2.1.20) [described in H. Halvorson and L. Ellias, Biochim. Biophys. Acta, 30, 28-40 (1958)]
Into each well were introduced an aqueous solution of a sample (1 μl), a 0.66 mM solution of p-nitrophenyl α-D-glucopyranoside in a buffer (98 μl) and a (0.4 mg/ml) enzyme solution in the buffer (1 μl) to give a total volume of 100 μl. After incubating at 37° C. for 30 minutes, the reaction was ceased by adding a 1M aqueous solution of sodium carbonate (100 μl). Then the absorbance (A405) of p-nitrophenol liberated by this enzyme reaction was measured. To give the blank absorbance (Ablank), the sample (1 μl) and the substrate (99 μl) were incubated in the same manner and an aqueous solution of sodium carbonate (100 μl) was added followed by the measurement of the absorbance. […] The sample at each concentration, the blank and the control were treated each in two wells at the same time. As the buffer, a 0.1M phosphate buffer solution (pH 6.8, prepared from KH2 PO4 and K2 HPO4) was employed.

[2] = biological target: T2, β-Galactosidase (E. Coli, EC. 3.2.1.23) (Escherichia coli, UniProt P00722); test: β-Galactosidase (E. coli) enzyme inhibition assay (o-nitrophenyl β-D-galactopyranoside)
T2 construct: purchased Sigma; host or cells: E. coli
Procedure: as §1, §3, §4
4) β-Galactosidase (E. Coli, EC. 3.2.1.23) [described in G. R. Craven, E. Steers, Jr. and C. B. Anfinsen, J. Biol. Chem., 240, 2468-2477 (1965)]
Into each well were introduced an aqueous solution of a sample (2 μl), a buffer (153 μl), a 20 mM solution of o-nitrophenyl β-D-galactopyranoside in a buffer (25 μl), a 100 mM 2-mercaptoethanol (10 μl) and a (10 μg/ml) enzyme solution in the buffer (10 μl) to give a total volume of 200 μl. After incubating at room temperature (20°-30° C.) for 30 minutes, the absorbance (A405) of o-nitrophenol liberated by this enzyme reaction was measured. To give the blank absorbance (Ablank), the sample (2 μl), the substrate (25 μl), the buffer solution (163 μl) and 2-mercaptoethanol (10 μl) were incubated in the same manner followed by the measurement of the absorbance. To give the control absorbance (Acontrol), on the other hand, water (2 μl), the substrate (25 μl), the buffer solution (153 μl), 2-mercaptoethanol (10 μl) and the enzyme solution (10 μl) were incubated in the same manner followed by the measurement of the absorbance. A 50 mM phosphate buffer solution (pH 7.3, prepared from KH2 PO4 and K2 HPO4, containing 1.3 mM of MgCl2) was employed as the buffer for the enzyme reaction. The IC50 was determined in the same manner as employed in the case of α-glucosidase.

[3] = biological target: β-Glucosidase (Almonds, EC 3.2.1.21); test: β-Glucosidase enzyme inhibition assay (p-nitrophenyl β-D-glucopyranoside); settings: for IC50: pH 5.0, 37° C., 45 minutes
Procedure: as §1, §2, §3, §4
2) β-Glucosidase (Almonds, EC 3.2.1.21) [described in A. Kobayashi, Agr. Biol. Chem., 26, 203-207 (1962)]
Into each well were introduced an aqueous solution of a sample (1 μl), a 0.33 mM solution of p-nitrophenyl β-D-glucopyranoside in a buffer (98 μl) and a (0.4 mg/ml) enzyme solution in the buffer (1 μl) to give a total volume of 100 μl. After incubating at 37° C. for 45 minutes, the reaction was ceased by adding a 1M aqueous solution of sodium carbonate (100 μl). Then the absorbance (A405) of p-nitrophenol liberated by this enzyme reaction was measured. To give the blank absorbance (Ablank), the sample (1 μl) and the substrate (99 μl) were incubated in the same manner and an aqueous solution of sodium carbonate (100 μl) was added followed by the measurement of the absorbance. […] As the buffer, a 0.1M acetate buffer solution (pH 5.0, prepared from NaOAc and AcOH) was employed. The IC50 was determined in the same manner as employed in the case of α-glucosidase.

[4] = test system: α-Galactosidase (E. Coli, EC. 3.2.1.22); test: α-Galactosidase enzyme inhibition assay (p-nitrophenyl α-D-galactopyranoside); settings: pH 6.5, room temperature, 15 minutes
Procedure: as §1, §3, §4
3) α-Galactosidase (E. Coli, EC. 3.2.1.22) [described in H. Suzuki, S-C. Li and Y-T. Li, J. Biol. Chem., 245, 781-786 (1970)]
Into each well were introduced an aqueous solution of a sample (1 μl), a buffer (74 μl), a 9.9 mM solution of p-nitrophenyl α-D-galactopyranoside in a buffer (20 μl) and a (50 μg/ml) enzyme solution in the buffer (5 μl) to give a total volume of 100 μl. After incubating the resulting mixture at room temperature (20°-30° C.) for 15 minutes, the reaction was ceased by adding a 0.2M borate buffer solution (pH 9.8, prepared from NaOH and H3 BO3, 100 μl). Then the absorbance (A405) of p-nitrophenol liberated by this enzyme reaction was measured. To give the blank absorbance (Ablank), the sample (1 μl), the substrate (20 μl) and the buffer solution (79 μl) were incubated in the same manner and the 0.2M borate buffer solution (100 μl) was added followed by the measurement of the absorbance. To give the control absorbance ([…]), on the other hand, water (1 μl), the substrate (20 μl), the buffer solution (74 μl) and the enzyme solution (5 μl) were incubated in the same manner and the borate buffer solution (100 μl) was added followed by the measurement of the absorbance. A 0.1M phosphate buffer solution (pH 6.5, prepared from KH2 PO4 and K2 HPO4) was employed as the buffer for the enzyme reaction. The IC50 was determined in the same manner as employed in the case of α-glucosidase.

[5] = biological target: β-Galactosidase (Bovine liver. EC 3.2.1.23); test: β-Galactosidase (Bovine liver) enzyme inhibition assay (o-nitrophenyl β-D-galactopyranoside); settings: pH 7.3, room temperature, 30 minutes
Procedure: as §1, §3, §4
5) β-Galactosidase (Bovine liver. EC 3.2.1.23) [described in T. Aoyagi, T. Hazato, M. Kumagai, M. Hamada, T. Takeuchi and H. Umezawa, J. Antibiot., 28, 1006-1008 (1975)]
Into each well were introduced an aqueous solution of a sample (2 μl), a buffer (158 μl), a 20 mM solution of o-nitrophenyl β-D-galactopyranoside in a buffer (25 μl), a 100 mM 2-mercaptoethanol (10 μl) and a (5 mg/ml) enzyme solution in the buffer (5 μl) to give a total volume of 200 μl. After incubating at room temperature (20°-30° C.) for 30 minutes, the absorbance (A405) of o-nitrophenol liberated by this enzyme reaction was measured. To give the blank absorbance (Ablank), the sample (2 μl), the substrate (25 μl), the buffer solution (163 μl) and 2-mercaptoethanol (10 μl) were incubated in the same manner followed by the measurement of the absorbance. […] The IC50 was determined in the same manner as the one employed in the case of α-glucosidase.

T1 sequence (P53341 whole entry): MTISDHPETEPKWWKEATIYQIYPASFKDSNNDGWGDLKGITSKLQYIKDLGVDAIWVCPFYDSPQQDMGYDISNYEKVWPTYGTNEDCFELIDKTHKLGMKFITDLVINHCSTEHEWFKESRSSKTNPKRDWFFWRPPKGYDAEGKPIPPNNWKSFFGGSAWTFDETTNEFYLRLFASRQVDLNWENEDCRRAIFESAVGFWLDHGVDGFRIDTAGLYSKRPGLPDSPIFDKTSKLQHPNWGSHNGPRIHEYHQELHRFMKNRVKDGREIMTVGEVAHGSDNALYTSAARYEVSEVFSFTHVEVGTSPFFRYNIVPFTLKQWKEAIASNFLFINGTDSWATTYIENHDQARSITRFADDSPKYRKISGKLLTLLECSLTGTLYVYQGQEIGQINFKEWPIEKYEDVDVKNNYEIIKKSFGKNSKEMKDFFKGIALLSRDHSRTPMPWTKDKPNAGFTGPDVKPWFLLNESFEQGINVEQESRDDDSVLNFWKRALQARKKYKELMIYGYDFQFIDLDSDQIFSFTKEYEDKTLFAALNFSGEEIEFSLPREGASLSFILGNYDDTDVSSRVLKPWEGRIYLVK
T2 sequence (P00722 2-1024 limits assumed): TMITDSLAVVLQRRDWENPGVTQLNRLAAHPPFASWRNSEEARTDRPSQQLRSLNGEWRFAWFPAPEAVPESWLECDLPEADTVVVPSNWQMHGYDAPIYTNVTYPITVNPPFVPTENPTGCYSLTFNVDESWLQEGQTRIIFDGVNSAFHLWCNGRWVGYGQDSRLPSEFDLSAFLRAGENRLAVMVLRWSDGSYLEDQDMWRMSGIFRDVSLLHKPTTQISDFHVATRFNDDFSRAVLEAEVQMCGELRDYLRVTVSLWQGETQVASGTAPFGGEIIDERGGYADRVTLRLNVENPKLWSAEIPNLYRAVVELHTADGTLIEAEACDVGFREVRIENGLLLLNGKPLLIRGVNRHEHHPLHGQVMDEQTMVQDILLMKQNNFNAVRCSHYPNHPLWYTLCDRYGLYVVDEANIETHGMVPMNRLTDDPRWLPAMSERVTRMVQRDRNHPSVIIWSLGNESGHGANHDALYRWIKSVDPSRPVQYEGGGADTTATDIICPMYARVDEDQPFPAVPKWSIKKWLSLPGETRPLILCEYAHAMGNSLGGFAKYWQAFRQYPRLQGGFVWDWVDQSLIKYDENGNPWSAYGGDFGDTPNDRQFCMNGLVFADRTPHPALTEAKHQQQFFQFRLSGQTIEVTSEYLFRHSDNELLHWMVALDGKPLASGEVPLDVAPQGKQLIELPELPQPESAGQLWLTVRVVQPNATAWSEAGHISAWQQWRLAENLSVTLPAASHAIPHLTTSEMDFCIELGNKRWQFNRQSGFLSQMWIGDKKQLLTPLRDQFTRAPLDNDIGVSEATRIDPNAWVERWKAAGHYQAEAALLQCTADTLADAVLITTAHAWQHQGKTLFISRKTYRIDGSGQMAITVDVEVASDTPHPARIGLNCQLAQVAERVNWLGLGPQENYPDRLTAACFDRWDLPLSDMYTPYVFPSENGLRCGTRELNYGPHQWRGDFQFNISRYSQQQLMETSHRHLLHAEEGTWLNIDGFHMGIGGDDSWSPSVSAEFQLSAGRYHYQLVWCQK

Compound: OC[C@@]1(O)[C@H](O)C(O)[C@@H]2OC(Nc3ccccc3)=N[C@@H]21 (stereo in doubt) [Compound 1-1D, (1R,5S,6R,7R,8S)-6-hydroxymethyl-3-phenylamino-2-oxa-4-azabicyclo[3.3.0]oct-3-ene-6,7,8-triol]
- IC50 [1]: 2.32e-06 M
- pIC50 [2]: < 3.52
- IC50 [3]: > 300 µM
- IC50 [4]: > 300 µM
- IC50 [5]: 3 µM

Compound: OC[C@@]1(O)[C@@H]2N=C(Nc3ccccc3)O[C@@H]2C(O)[C@@H]1O (stereo in doubt) [Compound 1-1L, (1S,5R,6S,7S,8R)-6-hydroxymethyl-3-phenylamino-2-oxa-4-azabicyclo[3.3.0]oct-3-ene-6,7,8-triol]
- inhibitory activity against α-glucosidase (in words) ([1]; compared with deoxynojirimycin, summary of Tables 1 and 2): remarkably strong inhibitory activities
- IC50 [1]: 2.93e-08 M
- pIC50 [2]: < 3.52
- IC50 [3]: > 300 µM
- inhibitory activity against β-glucosidase (in words) ([3]; summary of Table 1): weak inhibitory activities
- IC50 [4]: > 300 µM
- IC50 [5]: 153 µM
